Measured values published in patent publication US8921344B2, “Formulations and uses of 2-hydroxy-5-phenylazobenzoic acid derivatives” (Salix Pharmaceuticals, Inc., priority 2006, dated 2014).

Tests used:
clinical = assay: clinical; design: species or system human; conditions: in vivo; for AUClast / AUC(0-t) / Tmax: male, po; for AUClast / AUC(0-t) / AUClast ratio Treatment B/A / Cmax ratio Treatment B/A / Tmax: human; for AUC(0-t): AUClast
From the text: Study periods were separated by a minimum of 4 days. […] The standard pharmacokinetic parameters are shown for both dosing conditions in Table 1.
This delay is indicative of a slower transit of the drug through the GI tract.

[1] = cited from earlier work
[2] = compared with 5-ASA; cited from earlier work
[3] = cited from earlier work; remark: listed apart in the source

SMILES	Change of systemic level as measured by Cmax (clinical)	AUClast (clinical) [ng·h/mL]	AUC(0-t) (clinical) [ng·h/mL]	AUClast ratio Treatment B/A (clinical)	Cmax ratio Treatment B/A (clinical)	also measured
Nc1ccc(O)c(C(=O)O)c1 [5-ASA, 5-aminosalicylic acid, reference compound]	significant decreases	2096.4 ± 2577.31	2590 ± 1460			Change of systemic level as measured by AUClast (clinical): significant decrease
CC(=O)Nc1ccc(O)c(C(=O)O)c1 [N-Ac-5-ASA, N-acetyl-5-ASA]	significant decreases			0.819	0.639	Part of the oral dose measured in the blood / systemically absorbed ([1]; after oral balsalazide): ~12 % of the oral dose; Anti-inflammatory activity in the colon [2]: lower anti-inflammatory activity
Nc1ccc(C(=O)NCCC(=O)O)cc1 [4-ABA, 4-amino benzoyl-β-alanine]		302.0 ± 262.07	288 ± 158			Absorption of the released carrier component ([1]; released in the colon, largely eliminated in the feces): poorly absorbed; Tmax (clinical): 24.0 ± 8.51 h; Tmax (clinical; Tmax): 12.7 ± 9.46 h
O=C(O)CCNC(=O)c1ccc(/N=N/c2ccc(O)c(C(=O)O)c2)cc1 [Disodium balsalazide]						Water solubility [3]: highly water-soluble
O=C(O)CCNC(=O)c1ccc(/N=N/c2ccc(O)c(C(=O)O)c2)cc1 [Balsalazide, reference compound]				1.146	0.791	Part of the prodrug that reaches the colon ([1]; taken orally): 99%
